Data as given in patent US20230374007A1, “COMPOUNDS AND THEIR USE IN TREATING CANCER” (AstraZeneca AB, priority 2020, published 2023).

Target: T1, cereblon (CRBN)—DNA damage protein 1 (DDB1) complex (Homo sapiens, UniProt Q96SW2)
T1 construct: encoding amino acid residues 1 to 442 (Uniprot Q96SW2); hexahistidine (N); thrombin cleavage site (N); made in house; host or cells: Sf9 insect cells (baculovirus co-infection)
Experiment: Cereblon HTRF binding assay
From the text: The synthesized sequence was designed to encode an N-terminal hexahistidine tag, a thrombin cleavage site, an AviTag™ and a tobacco etch virus protease (TEV) cleavage site followed by the CBRN sequence. The resulting protein sequence is listed below.
The synthesized sequence was designed to encode an N-terminal hexahistidine tag, a tobacco etch virus protease (TEV) cleavage site followed by the DDB1 sequence. […] The linker amino acid residues are underlined and shown in italics.
Baculovirus production of CBRN and DDB1: Recombinant bacmid and P2 virus of CBRN and DDB1 was generated according to the Bac-to-Bac Baculovirus Expression System manual (ThermoFisher Scientific).
Protein Purification: Protein purification was initiated by thawing cells (resuspended in Lysis buffer) at r.t. Once thawed, NaCl was added to a final concentration of 200 mM, followed by 0.01 μL/mL Benzonase™ and the lysate was incubated with slow stirring for 20 minutes. After the freeze-thaw lysis, the whole cell lysate was centrifuged at 48 000 g for 45 minutes and all following purification steps were done on ice or in cold-room. Supernatant (cell lysate) was mixed with 1 mL/50 mL lysate Ni Sepharose™ 6 Fast Flow (Cytiva) pre-equilibrated with Wash buffer (50 mM Tris-Cl pH 8, 20 mM Imidazole, 500 mM NaCl, 10% Glycerol, 1 mM TCEP) and incubated with slow stirring for 1 h. The mix was loaded in a 70 mL open gravity flow column, washed with 10 bed volumes of Wash buffer, and stepwise eluted with 300 mM imidazole in Wash buffer. […] After biotinylation, the CBRN/DDB1 complex was purified by Size Exclusion Chromatography on a HiLoad™ 26/60 Superdex™ 200 column equilibrated in SEC buffer (50 mM HEPES pH 7.5, 200 mM NaCl, 5% glycerol, 1 mM TCEP) before flash-freezing in liquid nitrogen and storage at −80° C.
The assay mixture in a total volume of 4 μL consists of 50 mM Tris-HCl at pH 7.5, 100 mM NaCl, 0.01% Pluronic F127, 1 mM TCEP, 500 μM EDTA, 0.2 nM CRBN-DDB1, 0.2 nM terbium cryptate labeled streptavidin, and 2 nM Cyanine 5-labeled lenalidomide as the probe. […] Reagents were dispensed into the 384-well assay microplate using a Certus Flex liquid dispenser. After incubation for 2 h at r.t., the assay plates were read on a PHERAstar FSX plate reader (BMG Labtech) in the HTRF mode. The raw data from PHERAstar was directly imported into Genedata Screener for analysis. […] The ratio was normalized to positive and negative controls on the same plates to calculate percent inhibition: I %=(I−NC)/(PC−NC), where I are readings from the compound treated well, NC and PC are average readings from negative control wells and positive control wells, respectively. IC50 values were obtained by fitting the I % vs. compound concentration [I] to I %=S0+(SInf−S0)/(1+((IC50/[I])^n)), where S0 is the fitted activity level at zero concentration of test compound, SInf is the fitted activity level at […] concentration of test compound, and n is the hill coefficient of the curve.
The IC50 values reported below are the calculated mean result of one or more experiments.

T1 sequence (Q96SW2 with tags, fused parts or gaps): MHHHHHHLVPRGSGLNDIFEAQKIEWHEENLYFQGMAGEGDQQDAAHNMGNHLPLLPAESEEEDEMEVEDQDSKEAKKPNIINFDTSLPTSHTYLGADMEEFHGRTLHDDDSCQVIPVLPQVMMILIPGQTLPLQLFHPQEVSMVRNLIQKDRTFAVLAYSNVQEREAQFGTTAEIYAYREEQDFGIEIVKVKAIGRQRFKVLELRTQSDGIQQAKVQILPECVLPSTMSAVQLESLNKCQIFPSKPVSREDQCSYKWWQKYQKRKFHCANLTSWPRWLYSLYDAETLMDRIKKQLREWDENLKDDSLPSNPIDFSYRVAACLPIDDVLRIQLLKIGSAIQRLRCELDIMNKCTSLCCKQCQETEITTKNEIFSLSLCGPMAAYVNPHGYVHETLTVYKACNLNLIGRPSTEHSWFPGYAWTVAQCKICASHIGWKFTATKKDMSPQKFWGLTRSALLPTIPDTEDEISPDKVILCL

Going from `O=C1CCN(c2ccc3ccoc3c2)C(=O)N1` [Example 1, 1-(Benzofuran-6-yl)dihydropyrimidine-2,4 (1H,3H)-dione] to `O=C1CCN(c2ccc3ncoc3c2)C(=O)N1` [Example 5, 1-(Benzo[d]oxazol-6-yl)dihydropyrimidine-2,4 (1H,3H)-dione], the IC50 rises from 2100 nM to 6740 nM (3.2-fold).

Compared with `O=C1CCN(c2cccc3ncsc23)C(=O)N1` [Example 2, 1-(Benzo[d]thiazol-7-yl)dihydropyrimidine-2,4 (1H,3H)-dione], `O=C1CCN(c2cccc3ncoc23)C(=O)N1` [Example 4, 1-(Benzo[d]oxazol-7-yl)dihydropyrimidine-2,4 (1H,3H)-dione] is 1.9-fold higher in IC50: 2000 nM for the first, 3880 nM for the second. The first is the more potent here.

`O=C1CCN(c2ccc3ccnn3c2)C(=O)N1` [Example 3, 1-(Pyrazolo[1,5-a]pyridin-6-yl)dihydropyrimidine-2,4 (1H,3H)-dione] and `Cn1ncc2cc(N3CCC(=O)NC3=O)ccc21` [Example 6, 1-(1-Methyl-1H-indazol-5-yl)dihydropyrimidine-2,4 (1H,3H)-dione] are within 1.5-fold of each other in IC50: 3280 nM for the first, 3930 nM for the second.

First: O=C1CCN(c2ccn3ccnc3c2)C(=O)N1 [Example 7, 1-(Imidazo[1,2-a]pyridin-7-yl)dihydropyrimidine-2,4 (1H,3H)-dione]
Second: Cn1ccc2cc(N3CCC(=O)NC3=O)cnc21 [Example 11, 1-(1-Methyl-1H-pyrrolo[2,3-b]pyridin-5-yl)dihydropyrimidine-2,4 (1H,3H)-dione]
The IC50 of the first is 9-fold lower: 3000 nM for the first, 26900 nM for the second. The first is the more potent here.

`Cn1cc2cc(N3CCC(=O)NC3=O)ccc2n1` [Example 8, 1-(2-Methyl-2H-indazol-5-yl)dihydropyrimidine-2,4 (1H,3H)-dione] and `O=C1CCN(c2ccc3ncsc3c2)C(=O)N1` [Example 9, 1-(Benzo[d]thiazol-6-yl)dihydropyrimidine-2,4 (1H,3H)-dione] are within 1.5-fold of each other in IC50: 4570 nM for the first, 5350 nM for the second.

Going from `CN1Cc2ccc(N3CCC(=O)NC3=O)cc2C1=O` [Example 10, 1-(2-Methyl-3-oxoisoindolin-5-yl)dihydropyrimidine-2,4 (1H,3H)-dione] to `CN1CCc2ccc(N3CCC(=O)NC3=O)cc21` [Example 23, 1-(1-Methylindolin-6-yl)dihydropyrimidine-2,4 (1H,3H)-dione], the IC50 falls from 7880 nM to 1060 nM (7.4-fold).

Compared with `Cn1c(=O)oc2cc(N3CCC(=O)NC3=O)ccc21` [Example 12, 1-(3-Methyl-2-oxo-2,3-dihydrobenzo[d]oxazol-6-yl)dihydropyrimidine-2,4 (1H,3H)-dione], `CN1CCc2cc(N3CCC(=O)NC3=O)ccc21` [Example 21, 1-(1-Methylindolin-5-yl)dihydropyrimidine-2,4 (1H,3H)-dione] is 14-fold lower in IC50: 11000 nM for the first, 784 nM for the second. The second is the more potent here.

`O=c1ccn(-c2ccc3cc[nH]c3c2)c(=O)[nH]1` [Example 13, 1-(1H-Indol-6-yl)pyrimidine-2,4 (1H,3H)-dione] and `O=c1[nH]c(=O)n(-c2ccc3cc[nH]c3c2)cc1F` [Example 14, 5-Fluoro-1-(1H-indol-6-yl)pyrimidine-2,4 (1H,3H)-dione] are within 1.5-fold of each other in IC50: 765 nM for the first, 516 nM for the second.

Compared with `Cc1cn(-c2ccc3cc[nH]c3c2)c(=O)[nH]c1=O` [Example 15, 1-(1H-Indol-6-yl)-5-methylpyrimidine-2,4 (1H,3H)-dione], `O=C1CCN(c2cccc3[nH]ccc23)C(=O)N1` [Example 18, 1-(1H-Indol-4-yl)dihydropyrimidine-2,4 (1H,3H)-dione] is 31-fold lower in IC50: 10600 nM for the first, 347 nM for the second. The second is the more potent here.

Compared with `COc1cc(N2CCC(=O)NC2=O)c2ccn(C)c2c1` [Example 16, 1-(6-Methoxy-1-methyl-1H-indol-4-yl)dihydropyrimidine-2,4 (1H,3H)-dione], `COCc1cc(N2CCC(=O)NC2=O)c2ccn(C)c2c1` [Example 19, 1-(6-(Methoxymethyl)-1-methyl-1H-indol-4-yl)dihydropyrimidine-2,4 (1H,3H)-dione] is 2-fold higher in IC50: 211 nM for the first, 430 nM for the second.

`O=C1CCN(c2ccc3c(c2)CCN3)C(=O)N1` [Example 20, 1-(Indolin-5-yl)dihydropyrimidine-2,4 (1H,3H)-dione] and `O=C1CCN(c2ccc3c(c2)NCC3)C(=O)N1` [Example 22, 1-(Indolin-6-yl)dihydropyrimidine-2,4 (1H,3H)-dione] are within 1.5-fold of each other in IC50: 357 nM for the first, 487 nM for the second.
